From patent publication US8192962B2, “Processes for detecting toxic substances” (Daikin Industries, Ltd., priority 2001, dated 2012)

Tested on: Metabolism protein genes
Assay: DNA chip mRNA expression in yeast, metabolism protein genes (Table 7)
Type: cell-based, Saccharomyces cerevisiae S288C
Protocol: Yeast (Saccharomyces cerevisiae S288C (α SUC2mal mel gap2 CUP1)) were incubated at 25° C. on YPD medium (yeast extract 1%, polypepton 2%, glucose 2%). One of toxic chemical substances was added to the cells at logarithmic growth phase, and the cells were further incubated for two hours. Cells were cultured without any chemical substance in the same condition, and were used as control. Concentrations of the chemical substances were defined to inhibit the growth of the yeast but not lead to death.
After completion of the incubation, the culture was centrifuged to collect the cells. To the cells, sodium acetate buffer (50 mM sodium acetate, 10 mM EDTA, 1% SDS) was added, and the mixture was shaken at 65° C. for five minutes, followed by returning to room temperature, and obtaining the supernatant, of which the procedures were repeated two times. To the supernatant, ½ amount of a solution of phenol/chloroform was added, and the mixture was centrifuged to give a supernatant, which was added with an equal amount of chloroform, and the mixture was centrifuged to give a supernatant. To the supernatant, an equal amount of isopropanol containing 0.3 M sodium acetate was added, and the mixture was allowed to stand at room temperature for 30 minutes, after which the mixture was centrifuged to give a sediment of the whole RNAs. Seventy % ethanol was added to the sediment, and the mixture was again centrifuged to give a sediment, which was then dried and dissolved in water. mRNA was isolated from the whole RNAs as followings. In view of the fact that a poly A chain is attached to the 3′ terminus of mRNA, a polynucleotide having a poly T structure which was immobilized on the surface of latex beads was used to trap the mRNA, and then the mRNA was washed and eluted with spine column (Oligotex-dT30<Super>mRNA Purification Kit, Takara). Reverse transcription of the mRNA was conducted with a reverse transcriptase (Super Script II Reverse Transcriptase; catalogue No. 18064-014, GibcoBRL) using fluorescence-labeled nucleotides to give cDNAs that were introduced with Cy3-dUTP or Cy5-dUTP during the reverse transcription.
The labeled cDNAs were dissolved in TE buffer (10mM Tris-HCl/1 mM EDTA, pH8.0), and the solution was dropped on the DNA chip containing the whole genes of yeast (DNA Chip Research Inc. Japan) so that the cDNAs were hybridized on the DNA chip at 65° C. for over 12 hours. The fluoresces intensity of the DNA chip was read with a scanner, and the ratio relative to the fluorescence intensity resulting from the absence of chemical substance was estimated as the following, which is shown in Tables 1 to 9: […]

Cl[C@H]1[C@H](Cl)[C@@H](Cl)[C@@H](Cl)[C@H](Cl)[C@H]1Cl [(7), γ-hexachlorocyclohexane]
The level of expressed mRNA in the presence of chemical substance/The level of expressed mRNA in the absence of chemical substance (yeast gene YAL012W): 0.6
The level of expressed mRNA in the presence of chemical substance/The level of expressed mRNA in the absence of chemical substance (yeast gene YAL038W): 0.9
level of expressed mRNA in the presence/in the absence of chemical substance (yeast gene YBR003W): 1.1
level of expressed mRNA in the presence/in the absence of chemical substance (yeast gene YBR011C): 1.1
level of expressed mRNA in the presence/in the absence of chemical substance (yeast gene YBR020W): 0.7
The level of expressed mRNA in the presence of chemical substance/The level of expressed mRNA in the absence of chemical substance (yeast gene YBR023C): 0.7
The level of expressed mRNA in the presence of chemical substance/The level of expressed mRNA in the absence of chemical substance (yeast gene YBR029C): 0.4
The level of expressed mRNA in the presence of chemical substance/The level of expressed mRNA in the absence of chemical substance (yeast gene YBR183W): 1.7
The level of expressed mRNA in the presence of chemical substance/The level of expressed mRNA in the absence of chemical substance (yeast gene YBR222C): 1.0
The level of expressed mRNA in the presence of chemical substance/The level of expressed mRNA in the absence of chemical substance (yeast gene YBR256C): 2.1
The level of expressed mRNA in the presence of chemical substance/The level of expressed mRNA in the absence of chemical substance (yeast gene YCL009C): 1.3
The level of expressed mRNA in the presence of chemical substance/The level of expressed mRNA in the absence of chemical substance (yeast gene YCL064C): 13.4
level of expressed mRNA in the presence/in the absence of chemical substance (yeast gene YCR010C): 1.3
level of expressed mRNA in the presence/in the absence of chemical substance (yeast gene YCR034W): 0.3
The level of expressed mRNA in the presence of chemical substance/The level of expressed mRNA in the absence of chemical substance (yeast gene YCR048W): 0.9
The level of expressed mRNA in the presence of chemical substance/The level of expressed mRNA in the absence of chemical substance (yeast gene YCR098C): 1.2
The level of expressed mRNA in the presence of chemical substance/The level of expressed mRNA in the absence of chemical substance (yeast gene YDR019C): 1.4
level of expressed mRNA in the presence/in the absence of chemical substance (yeast gene YDR050C): 1.5
level of expressed mRNA in the presence/in the absence of chemical substance (yeast gene YDR073W): 1.2
level of expressed mRNA in the presence/in the absence of chemical substance (yeast gene YDR123C): 0.9
level of expressed mRNA in the presence/in the absence of chemical substance (yeast gene YDR178W): 0.6
level of expressed mRNA in the presence/in the absence of chemical substance (yeast gene YDR277C): 1.2
level of expressed mRNA in the presence/in the absence of chemical substance (yeast gene YDR284C): 1.4
level of expressed mRNA in the presence/in the absence of chemical substance (yeast gene YDR345C): 1.1
The level of expressed mRNA in the presence of chemical substance/The level of expressed mRNA in the absence of chemical substance (yeast gene YDR380W): 0.5
level of expressed mRNA in the presence/in the absence of chemical substance (yeast gene YDR400W): 0.6
level of expressed mRNA in the presence/in the absence of chemical substance (yeast gene YDR408C): 0.8
level of expressed mRNA in the presence/in the absence of chemical substance (yeast gene YDR483W): 0.8
The level of expressed mRNA in the presence of chemical substance/The level of expressed mRNA in the absence of chemical substance (yeast gene YDR497C): 0.5
The level of expressed mRNA in the presence of chemical substance/The level of expressed mRNA in the absence of chemical substance (yeast gene YDR502C): 0.9
The level of expressed mRNA in the presence of chemical substance/The level of expressed mRNA in the absence of chemical substance (yeast gene YDR516C): 3.9
level of expressed mRNA in the presence/in the absence of chemical substance (yeast gene YEL063C): 0.7
level of expressed mRNA in the presence/in the absence of chemical substance (yeast gene YER015W): 1.2
The level of expressed mRNA in the presence of chemical substance/The level of expressed mRNA in the absence of chemical substance (yeast gene YER026C): 1.6
The level of expressed mRNA in the presence of chemical substance/The level of expressed mRNA in the absence of chemical substance (yeast gene YER053C): 2.8
The level of expressed mRNA in the presence of chemical substance/The level of expressed mRNA in the absence of chemical substance (yeast gene YER069W): 1.0
level of expressed mRNA in the presence/in the absence of chemical substance (yeast gene YER081W): 0.5
The level of expressed mRNA in the presence of chemical substance/The level of expressed mRNA in the absence of chemical substance (yeast gene YER096W): 0.9
level of expressed mRNA in the presence/in the absence of chemical substance (yeast gene YER120W): 0.9
The level of expressed mRNA in the presence of chemical substance/The level of expressed mRNA in the absence of chemical substance (yeast gene YER178W): 1.6
level of expressed mRNA in the presence/in the absence of chemical substance (yeast gene YFL011W): 0.8
The level of expressed mRNA in the presence of chemical substance/The level of expressed mRNA in the absence of chemical substance (yeast gene YFL014W): 5.5
The level of expressed mRNA in the presence of chemical substance/The level of expressed mRNA in the absence of chemical substance (yeast gene YFL030W): 0.6
The level of expressed mRNA in the presence of chemical substance/The level of expressed mRNA in the absence of chemical substance (yeast gene YFL031W): 0.9
The level of expressed mRNA in the presence of chemical substance/The level of expressed mRNA in the absence of chemical substance (yeast gene YFL056C): 1.4
The level of expressed mRNA in the presence of chemical substance/The level of expressed mRNA in the absence of chemical substance (yeast gene YFL057C): 1.8
The level of expressed mRNA in the presence of chemical substance/The level of expressed mRNA in the absence of chemical substance (yeast gene YFR047C): 2.0
level of expressed mRNA in the presence/in the absence of chemical substance (yeast gene YGL012W): 0.9
The level of expressed mRNA in the presence of chemical substance/The level of expressed mRNA in the absence of chemical substance (yeast gene YGL022W): 0.7
level of expressed mRNA in the presence/in the absence of chemical substance (yeast gene YGL115W): 1.4
level of expressed mRNA in the presence/in the absence of chemical substance (yeast gene YGL205W): 0.8
The level of expressed mRNA in the presence of chemical substance/The level of expressed mRNA in the absence of chemical substance (yeast gene YGL209W): 1.0
The level of expressed mRNA in the presence of chemical substance/The level of expressed mRNA in the absence of chemical substance (yeast gene YGL248W): 1.6
The level of expressed mRNA in the presence of chemical substance/The level of expressed mRNA in the absence of chemical substance (yeast gene YGR037C): 1.4
The level of expressed mRNA in the presence of chemical substance/The level of expressed mRNA in the absence of chemical substance (yeast gene YGR055W): 0.6
level of expressed mRNA in the presence/in the absence of chemical substance (yeast gene YGR096W): 0.9
level of expressed mRNA in the presence/in the absence of chemical substance (yeast gene YGR191W): 0.7
The level of expressed mRNA in the presence of chemical substance/The level of expressed mRNA in the absence of chemical substance (yeast gene YGR194C): 2.2
level of expressed mRNA in the presence/in the absence of chemical substance (yeast gene YGR204W): 0.8
The level of expressed mRNA in the presence of chemical substance/The level of expressed mRNA in the absence of chemical substance (yeast gene YGR256W): 1.4
The level of expressed mRNA in the presence of chemical substance/The level of expressed mRNA in the absence of chemical substance (yeast gene YGR282C): 1.1
level of expressed mRNA in the presence/in the absence of chemical substance (yeast gene YGR288W): 1.4
level of expressed mRNA in the presence/in the absence of chemical substance (yeast gene YHR025W): 0.8
The level of expressed mRNA in the presence of chemical substance/The level of expressed mRNA in the absence of chemical substance (yeast gene YHR111W): 1.6
level of expressed mRNA in the presence/in the absence of chemical substance (yeast gene YHR123W): 0.9
The level of expressed mRNA in the presence of chemical substance/The level of expressed mRNA in the absence of chemical substance (yeast gene YHR137W): 0.4
The level of expressed mRNA in the presence of chemical substance/The level of expressed mRNA in the absence of chemical substance (yeast gene YHR174W): 1.6
The level of expressed mRNA in the presence of chemical substance/The level of expressed mRNA in the absence of chemical substance (yeast gene YHR176W): 1.4
level of expressed mRNA in the presence/in the absence of chemical substance (yeast gene YHR210C): 1.9
level of expressed mRNA in the presence/in the absence of chemical substance (yeast gene YIL006W): 0.8
The level of expressed mRNA in the presence of chemical substance/The level of expressed mRNA in the absence of chemical substance (yeast gene YIL045W): 1.6
The level of expressed mRNA in the presence of chemical substance/The level of expressed mRNA in the absence of chemical substance (yeast gene YIL107C): 1.6
The level of expressed mRNA in the presence of chemical substance/The level of expressed mRNA in the absence of chemical substance (yeast gene YIL154C): 1.3
The level of expressed mRNA in the presence of chemical substance/The level of expressed mRNA in the absence of chemical substance (yeast gene YIL155C): 2.2
The level of expressed mRNA in the presence of chemical substance/The level of expressed mRNA in the absence of chemical substance (yeast gene YIL167W): 1.2
The level of expressed mRNA in the presence of chemical substance/The level of expressed mRNA in the absence of chemical substance (yeast gene YIR034C): 0.8
The level of expressed mRNA in the presence of chemical substance/The level of expressed mRNA in the absence of chemical substance (yeast gene YIR036C): 1.0
The level of expressed mRNA in the presence of chemical substance/The level of expressed mRNA in the absence of chemical substance (yeast gene YJL031C): 2.3
The level of expressed mRNA in the presence of chemical substance/The level of expressed mRNA in the absence of chemical substance (yeast gene YJL068C): 1.2
The level of expressed mRNA in the presence of chemical substance/The level of expressed mRNA in the absence of chemical substance (yeast gene YJL099W): 1.8
level of expressed mRNA in the presence/in the absence of chemical substance (yeast gene YJL121C): 0.7
level of expressed mRNA in the presence/in the absence of chemical substance (yeast gene YJL167W): 1.5
The level of expressed mRNA in the presence of chemical substance/The level of expressed mRNA in the absence of chemical substance (yeast gene YJL172W): 1.0
level of expressed mRNA in the presence/in the absence of chemical substance (yeast gene YJL216C): 1.5
The level of expressed mRNA in the presence of chemical substance/The level of expressed mRNA in the absence of chemical substance (yeast gene YJL219W): 0.9
level of expressed mRNA in the presence/in the absence of chemical substance (yeast gene YJR077C): 0.7
The level of expressed mRNA in the presence of chemical substance/The level of expressed mRNA in the absence of chemical substance (yeast gene YJR137C): 0.8
level of expressed mRNA in the presence/in the absence of chemical substance (yeast gene YJR143C): 0.5
The level of expressed mRNA in the presence of chemical substance/The level of expressed mRNA in the absence of chemical substance (yeast gene YJR148W): 2.1
The level of expressed mRNA in the presence of chemical substance/The level of expressed mRNA in the absence of chemical substance (yeast gene YJR155W): 1.7
